According to patent EP4725507A1, “POLYPEPTIDE CONJUGATE, PHARMACEUTICAL COMPOSITION CONTAINING POLYPEPTIDE CONJUGATE AND USE THEREOF” (Nanjing Anji Biotechnology Co., Ltd., priority 2023, dated 2025):
Peptide text beside a SMILES is read from it. * marks the point of attachment. Paclitaxel(2'-O-succinyl) = CC(=O)O[C@H]1C(=O)[C@@]2(C)[C@H]([C@H](OC(=O)c3ccccc3)[C@]3(O)C[C@H](OC(=O)[C@H](OC(=O)CCC(=O)*)[C@@H](NC(=O)c4ccccc4)c4ccccc4)C(C)=C1C3(C)C)[C@]1(OC(C)=O)CO[C@@H]1C[C@@H]2O

How the values were obtained:
[1] = system: non-small cell lung cancer A549 xenograft tumors; assay: In vivo tumor-inhibitory activity of DOC-AI, A549 xenograft; set-up: species or system BALB/c nude mice; conditions: 4 days on, 3 days off until day 21
Protocol: (§1) Non-small cell lung cancer A549 cells and human gastric cancer MKN-45 cells were preserved in F12-K medium containing 10% fetal bovine serum and 1% penicillin + streptomycin, and incubated at 37°C with 5% CO2 and 95% humidity. The aforementioned cells were cultured in T175 flasks with an experimental cell density of 80%. The aforementioned cell lines were mycoplasma-negative. Both A549 cells and MKN-45 cells were provided by Nanjing Anji Biotechnology Co., Ltd.
Non-small cell lung cancer A549 cells in the vigorous growth stage were taken and inoculated subcutaneously into the right axilla of BALB/c nude mice (Nanjing Zhonghua Biotechnology Co., Ltd.) under sterile conditions, with a cell inoculation amount of 1×10^7. The diameter of transplanted tumors in nude mice was measured with a vernier caliper. When the tumors grew to approximately 50 mm^3, 30 tumor-bearing nude mice with good growth status and relatively uniform tumor size were selected and divided into 5 groups, with 6 mice in each group. The administration frequency was continuous administration for 4 days followed by an interval of 3 days, and this cycle was repeated until day 21. The anti-tumor effect in the nude mice was dynamically observed by measuring the tumor diameter. The tumor diameter was measured every other day, and the body weight of the nude mice was weighed simultaneously during the measurement of the tumor diameter. After 21 days of administration, the nude mice were euthanized, the tumor inhibition rate (%) was calculated, and the tumor masses were peeled off and weighed. Table 2 Detection of In Vivo Tumor-Inhibitory Activity of DOC-AI

[2] = system: A549 cells; assay: Tumor vertical migration (Transwell chambers); type: cell-based; conditions: 48 h
Protocol: A549 cells in the logarithmic growth phase were taken, digested with trypsin to prepare a cell suspension, and 100 µL of the cell suspension was inoculated into Transwell chambers with 3.5×10^4 cells per well. A blank group, a positive drug group, and an administration group were set up. […] 600 µL of F-12K medium containing 10% FBS was added to the 24-well plate holding the chambers. After incubation in a 37°C, 5% CO2 incubator for 48 h, the cells were fixed with methanol for 30 min and stained with crystal violet for 10 min. After staining, the cell migration status was photographed under a microscope (model: CKX31SF, manufacturer: OLYMPUS CORPORATION) at a magnification of 100×. Meanwhile, Photoshop 20.0.1 was used for quantitative calculation of the number of migrated tumor cells, and the results were expressed as mean ± SD (n = 3).

[3] = system: A549 cells; assay: Tumor horizontal migration (scratch test); type: cell-based; conditions: 48 h
Protocol: A549 cells in the logarithmic growth phase were taken, digested with trypsin to prepare a cell suspension, and 1 mL of the cell suspension was inoculated into a 24-well plate with 3.5×10^5 cells per well. The 24-well plate was incubated in a 37°C, 5% CO2 incubator for 24 h, then a scratch was made vertically along the horizontal line at the bottom of the plate using a 200 µL pipette tip (one scratch per well). The original medium was discarded, and the wells were washed twice with 1 mL PBS. A blank group, a positive drug group, and an administration group were set up. […] The cell migration status was photographed at 0 h and 48 h using a microscope (model: CKX31SF, manufacturer: OLYMPUS CORPORATION) at a magnification of 100×. Meanwhile, ImageJ 1.74V was used for quantitative calculation of the number of migrated tumor cells, and the results were expressed as mean ± SD (n = 3).

[4] = system: gastric cancer MKN45 xenograft tumors; assay: In vivo tumor-inhibitory activity of DOC-AI, MKN45 xenograft; set-up: species or system BALB/c nude mice; Tumor Weight: unit not given here; conditions: 6.20 µmol/Kg
Protocol: as §1
Gastric cancer MKN45 cells in the vigorous growth stage were taken and inoculated subcutaneously into the right axilla of BALB/c nude mice (Hangzhou Ziyuan Laboratory Animal Technology Co., Ltd.) under sterile conditions, with a cell inoculation amount of 1×10^7. The diameter of transplanted tumors in nude mice was measured with a vernier caliper. When the tumors grew to approximately 50 mm^3, 18 tumor-bearing nude mice with good growth status and relatively uniform tumor size were selected and divided into 3 groups, with 6 mice in each group. The administration frequency was once every 3 days, and this cycle was repeated until day 21. The anti-tumor effect in the nude mice was dynamically observed by measuring the tumor diameter. The tumor diameter was measured every other day, and the body weight of the nude mice was weighed simultaneously during the measurement of the tumor diameter. After 21 days of administration, the nude mice were euthanized, the tumor inhibition rate (%) was calculated, and the tumor masses were peeled off and weighed. Table 7 Results of Detection of In Vivo Tumor-Inhibitory Activity of DOC-AI

[5] = system: human gastric cancer cell MKN45 xenograft tumors; assay: In vivo tumor-inhibitory activity of PTX-AI, MKN45 xenograft; set-up: species or system BALB/c nude mice; conditions: 21 days; for Final Tumor Volume: in mm³ (unit assumed)
Protocol: as §1
Human gastric cancer cells MKN-45 in the vigorous growth stage were taken and inoculated subcutaneously into the right axilla of BALB/c nude mice under sterile conditions, with a cell inoculation amount of 5×10^6. The diameter of transplanted tumors in nude mice was measured with a vernier caliper. When the tumors grew to approximately 50mm^3, […] tumor-bearing nude mice with good growth status and relatively uniform tumor size were selected, and divided into 6 groups, including 10 mice in the model group and 8 mice in each of the remaining groups. The anti-tumor effect of the test substance was dynamically observed by measuring the tumor diameter. The tumor diameter was measured every other day, and the body weight of the nude mice was weighed simultaneously during the measurement of the tumor diameter. After 21 days of administration, the nude mice were euthanized, the tumor inhibition rate (%) was calculated, and the tumor masses were peeled off and weighed. Table 3 Detection of In Vivo Tumor-Inhibitory Activity of PTX-AI

[6] = MKN45 xenograft, once every 3 days until day 21
[7] = 2.64 µmol/Kg, once every other day
[8] = 4.07 µmol/Kg, once every other day
[9] = 5.28 µmol/Kg, continuous administration for 4 days a week
[10] = 7.92 µmol/Kg, once every other day

## CC(=O)O[C@@]12CO[C@@H]1C[C@H](O)[C@@]1(C)C(=O)[C@H](O)C3=C(C)[C@@H](OC(=O)[C@H](OC(=O)CCC(=O)N[C@@H](CCCNC(=N)N)C(=O)N[C@@H](CO)C(=O)N4CCC[C@H]4C(=O)N[C@@H](Cc4ccc(O)cc4)C(=O)N[C@@H](C)C(=O)N[C@@H](CC(N)=O)C(=O)N[C@@H](CO)C(=O)O)[C@@H](NC(=O)OC(C)(C)C)c4ccccc4)C[C@@](O)([C@@H](OC(=O)c4ccccc4)[C@H]21)C3(C)C [DOC-AI]
[1]; 6.20 µmol/Kg
  Final Tumor Volume: 73.75±23.01
  Tumor Inhibition Rate: 90.40%
  Tumor Weight: 81.00 ± 40.81 mg
[1]; 12.40 µmol/Kg
  Final Tumor Volume: 31.31±22.73
  Tumor Inhibition Rate: 95.33%
  Tumor Weight: 51.83 ± 31.36 mg
[1]; 24.80 µmol/Kg
  Final Tumor Volume: 20.30±20.80
  Tumor Inhibition Rate: 97.33%
  Tumor Weight: 20.53 ± 20.80 mg
[2]; 10 nM DOC-AI compared with 10 nM DOC
  vertical migration rate: lower than that of 10 nM DOC
[2]; 1 µM, 100 nM, 10 nM, 1 nM, compared with the blank group
  vertical migration of A549 cells: effectively inhibited the vertical migration of A549 cells in a concentration-dependent manner
[2]; A549, lowest effective concentration
  effective concentration (vertical migration): 1 nM
[3]; 1 nM DOC-AI compared with 100 nM DOC
  horizontal migration rate: lower than that of 100 nM DOC
[3]; 100 nM, 10 nM, 1 nM, compared with the blank group
  horizontal migration of A549 cells: effectively inhibited the horizontal migration of A549 cells in a concentration-dependent manner
[4]; MKN45 xenograft nude mice, during the administration period
  body weight changes: no significant weight loss was observed
[4]; [6]
  Tumor Inhibition Rate: 84.25±9.15%
  Tumor Weight: 204.34±54.48
[4]; MKN45 xenograft, once every 3 days until day 21, in mm³ (unit assumed)
  Final Tumor Volume: 191.31±54.48

## CC(=O)O[C@H]1C(=O)[C@@]2(C)[C@H]([C@H](OC(=O)c3ccccc3)[C@]3(O)C[C@H](OC(=O)[C@H](OC(=O)CCC(=O)N[C@@H](CCCNC(=N)N)C(=O)N[C@@H](CO)C(=O)N4CCC[C@H]4C(=O)N[C@@H](Cc4ccc(O)cc4)C(=O)N[C@@H](C)C(=O)N[C@@H](CC(N)=O)C(=O)N[C@@H](CO)C(=O)O)[C@@H](NC(=O)c4ccccc4)c4ccccc4)C(C)=C1C3(C)C)[C@]1(OC(C)=O)CO[C@@H]1C[C@@H]2O [PTX-AI] ({Paclitaxel(2'-O-succinyl)}-RSPYANS-OH)
[5]; [7]
  Tumor Inhibition Rate: 36.3%
  Tumor Weight: 0.961 ± 0.119 g
  Final Tumor Volume: 934.0±125.0
[5]; [8]
  Tumor Inhibition Rate: 42.9%
  Tumor Weight: 0.861 ± 0.126 g
  Final Tumor Volume: 852.1±137.3
[5]; [9]
  Tumor Inhibition Rate: 53.3%
  Tumor Weight: 0.705 ± 0.066 g
  Final Tumor Volume: 700.6±59.6
[5]; [10]
  Tumor Inhibition Rate: 60.8%
  Tumor Weight: 0.591 ± 0.099 g
  Final Tumor Volume: 579.8±91.9
